According to paper PMC11243320, “Tailoring Fibroblast-Activation Protein Targeting for Theranostics: A Comparative Preclinical Evaluation of the ^68Ga- and ^177Lu-Labeled Monomeric and Dimeric Fibroblast-Activation Protein Inhibitors DOTA.SA.FAPi and DOTAGA.(SA.FAPi)2” (Molecules, 2024):

Key:
[1] = Lipophilicity LogD octanol/PBS pH 7.4, shake-flask method; type: physicochemical
Method: (§1) The lipophilicity (LogDoctanol/PBS) and protein binding of the four radiotracers in human serum were determined as described in the Supplemental Data. […]
minimum conjugate amount. Briefly, the Ge-68/Ga-68 generator was eluted with 5 mL HCl 0.1 N and the eluate (~300 MBq) was loaded onto a cation exchange column (Strata-XC, Phenomenex). […]
After the labeling with gallium-68 or lutetium-177 and the quality control of the generated radiotracers, one equivalent of either natGa(NO3)3 or natLuCl3∙6H2O was added to the relevant radiolabeling solutions. […] The homogeneity was determined by HPLC, […]
Lipophilicity /Protein Binding Studies and Metabolic Stability in Human Serum The lipophilicity (LogD Octanol/PBS, pH 7.4) was estimated by the “shake –flask” method: the labelled conju-gate (20 pmol; 0.3 MBq) was added to a 1:1 mixture of 1-octanol (500 μL) and PBS (500 μL, pH 7.4). […] From each phase, an aliquot (50 μL) was pipetted out and measured in a gamma counter. […] The partition coefficient was calculated as the average log ratio of the radioactivity in the organic fraction and […]

human serum proteins = test: Binding to human serum proteins, 30 min incubation; type: in vitro ADME; details: 37 °C
Method: as §1
minimum conjugate amount. Briefly, the Ge-68/Ga-68 generator was eluted with 5 mL HCl 0.1 N and the eluate (~300 MBq) was loaded onto a cation exchange column (Strata-XC, Phenomenex). Gallium-68 was eluted with 700 μL of a mixture of 5.5 M NaCl / 0.1 M HCl (prepared by mixing 0.530 mL of ultrapure 30% aq. HCl and 49.5 mL of 5.5M NaCl) directly into a vial containing 400 μL of 1.8 M sodium acetate buffer (pH 4.3) for DOTA.SA.FAPi or 2 mL 1.45 M HEPES (pH 4.1) for DOTAGA.(SA.FAPi)2, 2 mL H2O (only in case of DOTA.SA.FAPi), 200 μL of EtOH, and 20 μg (approximately 20 nmol) of the conjugate, followed by Sep-Pak C-18 purification to remove uncomplexed gallium-68. The purified [68Ga]Ga-DOTA.SA.FAPi and [68Ga]Ga-DO,TAGA.(SA.FAPi)2 were eluted in 2.7 mL of a solution of 12% EtOH in PBS. […]
The 68Ga- and 177Lu-labelled radiotracers (20 pmol; 0.3 MBq) were incubated with commercially available human serum (0.5 mL) at 37 °C for 30 min. […] After careful separation of the two phases, the respective activities were measured in a gamma counter, followed by determination of the percentage of the radiotracer that bound […]

| SMILES | Lipophilicity LogDoctanol/PBS-pH7.4 [1] | Percentage of human serum protein bound activity (human serum proteins) [%] |
| --- | --- | --- |
| N#C[C@@H]1CC(F)(F)CN1C(=O)CNC(=O)c1ccnc2ccc(OCCCCNc3c(NCCNC(=O)CN4CCN(CC(=O)[O-])CCN(CC(=O)[O-])CCN(CC(=O)[O-])CC4)c(=O)c3=O)cc12.[68Ga+3] [[^68Ga]Ga-DOTA.SA.FAPi] | −3.38 ± 0.03 | 10.6 ± 3.9 |
| N#C[C@@H]1CC(F)(F)CN1C(=O)CNC(=O)c1ccnc2ccc(OCCCCNc3c(NCCNC(=O)CN4CCN(CC(=O)[O-])CCN(CC(=O)[O-])CCN(CC(=O)[O-])CC4)c(=O)c3=O)cc12.[177Lu+3] [[^177Lu]Lu-DOTA.SA.FAPi] | −2.86 ± 0.06 | 9.9 ± 4.4 |
